Publication PMC6145841 (Biochemistry, 2018)
Square brackets hold non-standard residues; d marks the D form. Peptide text beside a SMILES is read from it.

Tests used:
[1] = molecular target: T1, ComD1 receptor (Streptococcus pneumoniae serotype 2, UniProt A0A0H2ZM50); test: Beta-galactosidase reporter dose response assay, group I strain D39pcomX::lacZ; format: cell-based
[2] = molecular target: ComD2 receptor (Streptococcus pneumoniae serotype 4, UniProt A0A0H2US84); format: cell-based
[3] = molecular target: T1, ComD1 receptor; details: Table 1; ref [26]; cited from earlier work

Molecule	EC50 [1] [nM]	EC50 [2] [nM]	activity against the ComD1 receptor (in words) [3]
CC[C@H](C)[C@H](NC(=O)[C@H](C)NC(=O)[C@H](C)NC(=O)[C@H](C)NC(=O)[C@H](CCCNC(=N)N)NC(=O)[C@H](CCSC)NC(=O)[C@@H](N)CCC(=O)O)C(=O)N[C@H](C(=O)N[C@@H](CC(C)C)C(=O)N[C@H](CC(=O)O)C(=O)N[C@@H](Cc1ccccc1)C(=O)N[C@@H](CC(C)C)C(=O)N[C@@H](Cc1ccccc1)C(=O)N[C@@H](C)C(=O)N[C@@H](CCCNC(=N)N)C(=O)N[C@@H](CCCCN)C(=O)N[C@@H](CCCCN)C(=O)O)[C@@H](C)CC [CSP2-I4AS5AR6Ad10L14A] (H-EMRAAAIIL[dD]FLFARKK-OH)	> 1000	87.7	–
EMALSKFFRDFILQRKK [CSP1-R3A]	–	–	complete loss of activity
